From article PMC3759666, “Post-translational modification and conformational state of Heat Shock Protein 90 differentially affect binding of chemically diverse small molecule inhibitors” (Oncotarget, 2013)

Experiments:
[1] = biological target: T1, yeast Hsp90 (Saccharomyces cerevisiae, UniProt P02829); assay: DMS cross-linking of N domain dimers; p23 binding by fluorescence anisotropy; assay type: biochemical
T1 construct: gene HSP82; purified yeast Hsp90

[2] = biological target: T2, yeast Hsp90 (Hsp82) (Saccharomyces cerevisiae, UniProt P02829); assay: BODIPY-GA anisotropy/displacement; GA-bead capture from yeast lysate; assay type: binding
T2 construct: wild-type NMC; coilNMC also measured

[3] = biological target: T3, Hsp90β (Homo sapiens, UniProt P08238)
T3 construct: gene HSP90AB1

[4] = biological target: T2, yeast Hsp90 (Hsp82); assay: PU-bead capture from yeast lysate; assay type: cell-based

T2 sequence (P02829 whole entry): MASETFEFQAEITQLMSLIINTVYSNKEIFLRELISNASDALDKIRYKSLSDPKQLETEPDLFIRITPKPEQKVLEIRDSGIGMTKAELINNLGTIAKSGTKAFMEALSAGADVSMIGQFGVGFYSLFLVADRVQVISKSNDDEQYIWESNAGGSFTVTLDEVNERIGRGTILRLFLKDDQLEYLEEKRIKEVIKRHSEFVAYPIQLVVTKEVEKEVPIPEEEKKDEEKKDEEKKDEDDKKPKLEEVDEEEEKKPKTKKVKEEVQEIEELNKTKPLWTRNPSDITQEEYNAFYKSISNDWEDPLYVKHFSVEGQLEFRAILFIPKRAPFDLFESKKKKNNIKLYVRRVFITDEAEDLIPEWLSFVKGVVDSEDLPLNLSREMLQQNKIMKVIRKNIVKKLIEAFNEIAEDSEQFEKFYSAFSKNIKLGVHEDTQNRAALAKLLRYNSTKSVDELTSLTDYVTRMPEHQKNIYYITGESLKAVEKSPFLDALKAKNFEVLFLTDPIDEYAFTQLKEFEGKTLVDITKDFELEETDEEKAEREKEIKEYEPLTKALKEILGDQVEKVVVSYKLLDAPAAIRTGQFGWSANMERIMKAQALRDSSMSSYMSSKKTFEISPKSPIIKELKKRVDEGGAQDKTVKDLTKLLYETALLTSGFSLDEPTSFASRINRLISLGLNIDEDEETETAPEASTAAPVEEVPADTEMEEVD
T3 sequence (P08238 2-724): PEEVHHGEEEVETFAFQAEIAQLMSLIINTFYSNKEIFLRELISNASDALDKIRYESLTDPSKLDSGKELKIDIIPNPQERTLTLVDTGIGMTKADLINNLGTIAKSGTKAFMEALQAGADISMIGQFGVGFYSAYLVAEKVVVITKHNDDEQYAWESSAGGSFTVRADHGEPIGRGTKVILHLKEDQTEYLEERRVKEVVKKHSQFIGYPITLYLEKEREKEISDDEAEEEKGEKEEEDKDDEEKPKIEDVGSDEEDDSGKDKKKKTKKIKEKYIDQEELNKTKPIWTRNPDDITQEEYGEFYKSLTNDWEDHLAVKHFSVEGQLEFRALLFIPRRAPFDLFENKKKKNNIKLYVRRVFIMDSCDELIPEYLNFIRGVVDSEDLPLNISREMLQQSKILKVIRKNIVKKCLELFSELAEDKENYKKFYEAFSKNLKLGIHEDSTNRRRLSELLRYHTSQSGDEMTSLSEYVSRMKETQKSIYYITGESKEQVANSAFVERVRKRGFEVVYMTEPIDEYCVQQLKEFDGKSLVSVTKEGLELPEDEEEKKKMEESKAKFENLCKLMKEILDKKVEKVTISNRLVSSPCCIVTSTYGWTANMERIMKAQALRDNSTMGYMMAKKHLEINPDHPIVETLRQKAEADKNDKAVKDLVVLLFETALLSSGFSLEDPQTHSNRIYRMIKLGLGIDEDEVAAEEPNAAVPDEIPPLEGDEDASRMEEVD
T1 sequence (P02829 whole entry): as the sequence (P02829 whole entry) above

Nc1ncnc2c1ncn2[C@@H]1O[C@H](CO[P@](=O)(O)O[P@](=O)(O)NP(=O)(O)O)[C@@H](O)[C@H]1O [AMP-PNP]
DMS cross-linking of N domain dimers; p23 binding by fluorescence anisotropy [1]: Only AMP-PNP promoted significant N domain dimerization (Figure 2F).

COC1=C2C[C@@H](C)C[C@H](OC)[C@H](O)[C@@H](C)/C=C(\C)[C@H](OC(N)=O)[C@@H](OC)/C=C\C=C(/C)C(=O)NC(=CC1=O)C2=O [GA, geldanamycin]
BODIPY-GA anisotropy/displacement; GA-bead capture from yeast lysate [2]: Coiled-coil yeast Hsp90 (coilNMC) has a similar affinity for GA as wild-type Hsp90 (NMC) | GA-agarose capture of Flag-Hsp90β from 293-H cell lysate [3]: GA-beads bound the non-phosphorylatable mutants (Hsp90α-Y197F and Hsp90β-Y192F) similarly to wild-type Hsp90

CC(C)NCCCn1c(Sc2cc3c(cc2I)OCO3)nc2c(N)ncnc21 [PU, PU-H71]
PU-bead capture from yeast lysate [4]: both GA- and PU-beads efficiently isolated coiled-coil Hsp90 from yeast lysates, compared to wild-type Hsp90
